Results: publication PMC10460880, “Cathepsin K‐Activated Probe for Fluoro‐Photoacoustic Imaging of Early Osteolytic Metastasis” (Advanced Science, 2023)

Experiments:
[1] = tested on: MDA-MB-231/Luc-induced osteolytic metastasis; test: Real-time NIR fluorescence and PA imaging of osteolytic metastasis; format: in vivo, BALB/c nude mice; conditions: i.v. 50 μM, 200 μL; imaged 0-24 h; n = 3
Description: page 5: PS. RAW 264.7 cells and BMMs were maintained in an atmosphere of 5% CO2 and 95% humidified air at 37 °C. The medium was changed every day. Cell cytotoxicity assay. MDA-MB-231/Luc and RAW 264.7 cells were seeded in 96-well plates (5×10^3 cells per well) for 24 h and then incubated with CTSK-APPA or CTSK-APP (5, 10, 20, 50 μM) or saline for 24 h. The medium was removed and cells were incubated with CCK-8 (0.5 mg/mL) for another 1 h. The absorbance of the mixture at 450 nm was measured by using a microplate reader. Cell viability was expressed by the ratio of the absorbance of the cells incubated with the probes to that of the cells incubated with culture medium only. In vitro osteoclast differentiation. Bone marrow-derived macrophages were isolated from the femurs and tibias of 4-week-old C57BL/6J mice and cultured in a complete medium containing M-CSF (30 ng/mL) for 4 days. […] Fluorescence images were captured by using the IVIS Spectrum imaging system with excitation at 660 ± 10 nm and emission at 710 ± 10 nm. […] The bone marrow toxicity of CTSK-APPA and CTSK-APP was assessed by blood analyses in mice. […] The red blood count (RBC) and white blood count (WBC) were further measured. […] The supernatants containing excreted probes were quantified by using a UV-vis absorption spectrometer. […]

[2] = tested on: BMMs, MDA-MB-231 cells, MCF-7 cells, neutrophils; test: Cell selectivity experiment, other cells; format: cell-based; conditions: MDA-MB-231, MCF-7, neutrophils, n = 3
[3] = Bone marrow toxicity analysis (blood RBC and WBC counts); format: in vivo, BALB/c nude mice; conditions: i.v. 50 μM, 200 μL; blood 24 h post-injection; n = 3
Description: Bone marrow toxicity analysis. The bone marrow toxicity of CTSK-APPA and CTSK-APP was assessed by blood analyses in mice. SPF grade 4-week-old BALB/c nude mice were intravenously injected with CTSK-APPA(50 μM, 200 μL) or saline (200 μL). The blood samples were collected in anticoagulant tubes at 24 h post-injection and stored at 4°C. The red blood count (RBC) and white blood count (WBC) were further measured.
Renal clearance efficiency studies. SPF grade 4-week-old BALB/c nude mice were intravenously injected with CTSK-APPA or CTSK-APP (50 μM, 200 μL) and placed in metabolic cages. The urine was collected at 3, 6, and 24 h post-injection, and then centrifuged at 5000 r.p.m. for 5 min. The supernatants containing excreted probes were quantified by using a UV-vis absorption spectrometer. […]
In vivo Bioluminescence, DR, CT, and MR imaging. […] Then BL imaging was recorded on an IVIS Spectrum imaging system at 10 min post-injection under anesthesia using isoflurane. All data were analyzed with the Living Image software. DR, CT, and MR imaging were recorded on an IVIS Spectrum imaging system, a single-photon emission computed tomography imaging system, and a preclinical magnetic resonance solution system, respectively.
Real-time tumor imaging. […] Fluorescence and PA images were acquired at 0, 1, 2, 4, 8, 12, and 24 h post-injection. […]
Histology. […] Images were captured by using a fluorescence microscope. […]

OCs = test: Cell selectivity experiment, osteoclasts; format: cell-based; conditions: n = 3

## Cbz‐Leu‐Arg‐OH [CTSK-APPA]
[1]
  time of maximum NIR fluorescence and PA signal post-injection: 4 h
[2]
  NIR fluorescence activation by other cells: did not induce NIR fluorescence activation
[3]
  red blood cell (RBC) and white blood cell (WBC) counts vs saline group: No apparent differences
OCs
  NIR fluorescence after incubation with OCs: strong NIR fluorescence signals
